Laboratory results: patent US11479551B2, “MTA-cooperative PRMT5 inhibitors” (Mirati Therapeutics, Inc., priority 2019, dated 2022)

Columns and labels:
HCT116 parental cells = assay: Proliferation assay (CellTiter-Glo, 10 days of treatment), HCT116 parental; assay type: cell-based; conditions: Homo sapiens, HCT-116, 240 h
Summary of the method: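 250 cells seeded in McCoy's 5A with 10% FBS, then given a dose response of PRMT5 inhibitor at 37 °C, 5% CO2 for five days. Cells were split 1:10 on Day 6 into fresh medium with the same compound concentration for 5 more days. Viability read on Day 11 by CellTiter-Glo; IC50 after 10 days of treatment.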

PRMT5/MEP50 complex = PRMT5/MEP50 complex (Homo sapiens (Human), UniProt O14744); assay: PRMT5:MEP50 HotSpot Assay (full-length histone H2A substrate, plus and minus MTA); assay type: biochemical; conditions: IC50 + 2 μM MTA, in the presence of 2 μM MTA
Chain of PRMT5/MEP50 complex (O14744 2-637): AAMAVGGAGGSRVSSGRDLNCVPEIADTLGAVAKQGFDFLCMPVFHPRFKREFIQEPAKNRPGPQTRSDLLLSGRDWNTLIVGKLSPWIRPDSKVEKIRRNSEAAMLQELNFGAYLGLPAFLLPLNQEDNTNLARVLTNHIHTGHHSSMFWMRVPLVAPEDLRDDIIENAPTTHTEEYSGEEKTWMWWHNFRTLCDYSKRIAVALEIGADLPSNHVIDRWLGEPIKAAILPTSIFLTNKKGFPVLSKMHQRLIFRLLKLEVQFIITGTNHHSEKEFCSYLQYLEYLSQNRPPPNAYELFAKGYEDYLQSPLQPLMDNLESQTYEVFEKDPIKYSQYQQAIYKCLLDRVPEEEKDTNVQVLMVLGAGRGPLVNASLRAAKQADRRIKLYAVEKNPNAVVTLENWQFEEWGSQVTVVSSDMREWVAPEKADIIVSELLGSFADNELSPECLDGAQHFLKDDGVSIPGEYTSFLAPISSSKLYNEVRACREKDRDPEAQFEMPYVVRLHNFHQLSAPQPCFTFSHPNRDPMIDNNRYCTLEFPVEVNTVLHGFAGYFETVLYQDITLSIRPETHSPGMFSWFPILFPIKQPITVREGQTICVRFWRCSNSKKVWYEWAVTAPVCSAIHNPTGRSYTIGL
Chain of PRMT5/MEP50 complex (Q9BQA1 2-342 partner): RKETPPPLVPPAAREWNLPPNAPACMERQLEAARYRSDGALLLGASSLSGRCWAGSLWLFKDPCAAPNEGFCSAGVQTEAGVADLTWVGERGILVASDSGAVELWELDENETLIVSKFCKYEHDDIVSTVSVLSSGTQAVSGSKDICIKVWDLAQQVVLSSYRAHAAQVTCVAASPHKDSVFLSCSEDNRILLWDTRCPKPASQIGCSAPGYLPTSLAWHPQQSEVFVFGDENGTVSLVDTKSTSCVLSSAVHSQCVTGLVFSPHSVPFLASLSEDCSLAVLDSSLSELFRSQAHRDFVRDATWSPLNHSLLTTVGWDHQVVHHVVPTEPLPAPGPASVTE
Summary of the method: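 Radiometric filter-binding format using recombinant full-length histone H2A as substrate. After the reaction was stopped, mixtures went onto filter paper and tritiated H2A was quantified by scintillation counting.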

[1] = test system: PRMT5-dependent Symmetric Di-methyl Arginine signal in HCT116 homozygous MTAP knockout cells; assay: SYM11 In-Cell Western, HCT116 MTAP knockout; assay type: cell-based; conditions: Homo sapiens, HCT-116, 96 h, HCT116 homozygous MTAP knockout cells, 4 days of treatment, SYM11/DRAQ5 ratio; read-out: In-cell-Western (SYM11) HCT116 MTAP_KO IC50
[2] = test system: HCT116 homozygous MTAP knockout cells; assay: Proliferation assay (CellTiter-Glo, 10 days of treatment), HCT116 MTAP knockout; assay type: cell-based; conditions: Homo sapiens, HCT-116, 240 h, read-out: Proliferation HCT116MTAP_KO IC50
Summary of the method: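 Cells (250/well) seeded in McCoy's 5A with 10% FBS, then treated the next day with a PRMT5 inhibitor dose response at 37 °C, 5% CO2. On day 6 they were split 1:10 into fresh medium with the same compound concentration. CellTiter-Glo viability was read on day 11 and IC50 taken after 10 days of treatment.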

[3] = test system: PRMT5-dependent Symmetric Di-methyl Arginine signal in HCT116 parental cells; assay: SYM11 In-Cell Western, HCT116 parental; assay type: cell-based; conditions: Homo sapiens, HCT-116, 96 h, 4 days of treatment, SYM11/DRAQ5 ratio
Summary of the method: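 HCT116 parental cells (2,000/well, McCoy's 5A with 10% FBS) dosed with PRMT5 inhibitors for four days at 37° C. Fixed in paraformaldehyde and methanol, then stained with SYM11 antibody and DRAQ5.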

Row | SMILES | IC50 (PRMT5/MEP50 complex) [nM] | IC50 [1] [nM] | IC50 [2] [nM] | IC50 (HCT116 parental cells) [nM] | IC50 [3] [nM]
1 | Cc1ccc(-c2c(-c3ccc4c(=O)[nH]nc(CN)c4c3)cnn2C)c(C#N)c1Cl [Example 4-151, 2-(4-(4-(aminomethyl)-1-oxo-1,2-dihydrophthalazin-6-yl)-1-methyl-1H-pyrazol-5-yl)-6-chloro-5-methylbenzonitrile] | 606 | 51 | 504 | > 10000 | 5810
2 | N#Cc1ccccc1-c1c[nH]c2ncc(-c3ccc4c(=O)[nH]nc(CN)c4c3)cc12 [Example 4-163, 2-(5-(4-(aminomethyl)-1-oxo-1,2-dihydrophthalazin-6-yl)-1H-pyrrolo[2,3-b]pyridin-3-yl)benzonitrile] | 3820 | > 3330 | > 10000 | > 10000 | > 3330
3 | COc1cc(Cl)c(C#N)c(-c2c(-c3ccc4c(=O)[nH]nc(CN)c4c3)cnn2C)c1 [Example 4-169, 2-(4-(4-(aminomethyl)-1-oxo-1,2-dihydrophthalazin-6-yl)-1-methyl-1H-pyrazol-5-yl)-6-chloro-4-methoxybenzonitrile] | 1350 | 35.5 | 294 | > 10000 | 4520
4 | Cn1ncc(-c2ccc3c(=O)[nH]nc(CN)c3c2)c1-c1ccc2ccccc2n1 [Example 4-182, 4-(aminomethyl)-6-(1-methyl-5-(quinolin-2-yl)-1H-pyrazol-4-yl)phthalazin-1(2H)-one] | 1420 | 58 | 572 | 7250 | > 1000
5 | Cn1ncc(-c2ccc3c(=O)[nH]nc(CN)c3c2)c1-c1ccc2c(Cl)cccc2c1C#N [Example 4-184, 2-(4-(4-(aminomethyl)-1-oxo-1,2-dihydrophthalazin-6-yl)-1-methyl-1H-pyrazol-5-yl)-5-chloro-1-naphthonitrile] | 127 | 4 | 107 | 9400 | > 10000
6 | Cn1ncc(-c2ccc3c(=O)[nH]nc(CN)c3c2)c1-c1cnn(Cc2ccccc2)c1Cl [Example 4-187, 4-(aminomethyl)-6-(1′-benzyl-5′-chloro-2-methyl-1′H,2H-[3,4′-bipyrazol]-4-yl)phthalazin-1(2H)-one] | 239 | 7 | 1900 | 1360 | 1000
7 | Cn1ncc(-c2ccc3c(=O)[nH]nc(CN)c3c2)c1-c1ccc2cccnc2c1C#N [Example 4-192, 7-(4-(4-(aminomethyl)-1-oxo-1,2-dihydrophthalazin-6-yl)-1-methyl-1H-pyrazol-5-yl)quinoline-8-carbonitrile] | 890 | 256 | 2140 | > 10000 | > 10000
8 | COc1cnc2ccc(-c3c(-c4ccc5c(=O)[nH]nc(CN)c5c4)cnn3C)c(C#N)c2c1 [Example 4-197, 6-(4-(4-(aminomethyl)-1-oxo-1,2-dihydrophthalazin-6-yl)-1-methyl-1H-pyrazol-5-yl)-3-methoxyquinoline-5-carbonitrile] | 719 | 25 | 256 | 8570 | > 1000
9 | Cn1ncc(-c2ccc3c(=O)[nH]nc(CN)c3c2)c1-c1cccc(C2CC2)c1C#N [Example 4-198, 2-(4-(4-(aminomethyl)-1-oxo-1,2-dihydrophthalazin-6-yl)-1-methyl-1H-pyrazol-5-yl)-6-cyclopropylbenzonitrile] | 111 | 21 | 136 | 7340 | 1270
10 | CCc1cc(Cl)cc(-c2c(-c3ccc4c(=O)[nH]nc(CN)c4c3)cnn2C)c1C#N [Example 4-200, 2-(4-(4-(aminomethyl)-1-oxo-1,2-dihydrophthalazin-6-yl)-1-methyl-1H-pyrazol-5-yl)-4-chloro-6-ethylbenzonitrile] | 156 | 32 | 71 | 4300 | 1750
11 | CCc1cc(OC)cc(-c2c(-c3ccc4c(=O)[nH]nc(CN)c4c3)cnn2C)c1C#N [Example 4-202, 2-(4-(4-(aminomethyl)-1-oxo-1,2-dihydrophthalazin-6-yl)-1-methyl-1H-pyrazol-5-yl)-6-ethyl-4-methoxybenzonitrile] | 255 | 8 | 232 | 2370 | > 1000
12 | Cn1ncc(-c2ccc3c(=O)[nH]nc(CN)c3c2)c1-c1cc(Cl)c2ccccc2c1C#N [Example 4-206, 2-(4-(4-(aminomethyl)-1-oxo-1,2-dihydrophthalazin-6-yl)-1-methyl-1H-pyrazol-5-yl)-4-chloro-1-naphthonitrile] | 35 | 3 | 34 | 1000 | > 1000

Continued by falling IC50 (PRMT5/MEP50 complex), values first:

Row | IC50 (PRMT5/MEP50 complex) [nM] | IC50 [1] [nM] | IC50 [2] [nM] | SMILES | IC50 (HCT116 parental cells) [nM] | IC50 [3] [nM]
13 | 1110 | 944 | 2030 | COc1ccc(-c2c(-c3ccc4c(=O)[nH]nc(CN)c4c3)cnn2C)c(C#N)c1 [Example 4-160, 2-(4-(4-(aminomethyl)-1-oxo-1,2-dihydrophthalazin-6-yl)-1-methyl-1H-pyrazol-5-yl)-5-methoxybenzonitrile] | 7700 | > 10000
14 | 707 | 87.5 | 617 | Cn1ncc(-c2ccc3c(=O)[nH]nc(CN)c3c2)c1-c1cc(C2CC2)ccc1C#N [Example 4-161, 2-(4-(4-(aminomethyl)-1-oxo-1,2-dihydrophthalazin-6-yl)-1-methyl-1H-pyrazol-5-yl)-4-cyclopropylbenzonitrile] | 6720 | 6560
15 | 656 | 31 | 234 | CCCc1cccc(-c2c(-c3ccc4c(=O)[nH]nc(CN)c4c3)cnn2C)c1C#N [Example 4-189, 2-(4-(4-(aminomethyl)-1-oxo-1,2-dihydrophthalazin-6-yl)-1-methyl-1H-pyrazol-5-yl)-6-propylbenzonitrile] | > 10000 | 1830
16 | 653 | 11 | 154 | Cn1ncc(-c2ccc3c(=O)[nH]nc(CN)c3c2)c1-c1ccc2c(c1C#N)CCCO2 [Example 4-196, 6-(4-(4-(aminomethyl)-1-oxo-1,2-dihydrophthalazin-6-yl)-1-methyl-1H-pyrazol-5-yl)chromane-5-carbonitrile] | 9290 | 1320
17 | 597 | 31.9 | 7110 | Cc1cc(Cl)cc(-c2c(-c3ccc4c(=O)[nH]nc(CN)c4c3)cnn2C)c1C#N [Example 4-180, 2-(4-(4-(aminomethyl)-1-oxo-1,2-dihydrophthalazin-6-yl)-1-methyl-1H-pyrazol-5-yl)-4-chloro-6-methylbenzonitrile] | 121 | 1410
18 | 464 | 93.3 | 583 | Cn1ncc(-c2ccc3c(=O)[nH]nc(CN)c3c2)c1-c1cc(Cl)c(Cl)cc1C#N [Example 4-164, 2-(4-(4-(aminomethyl)-1-oxo-1,2-dihydrophthalazin-6-yl)-1-methyl-1H-pyrazol-5-yl)-4,5-dichlorobenzonitrile] | > 10000 | > 10000
19 | 102 | 2 | 44 | Cn1ncc(-c2ccc3c(=O)[nH]nc(CN)c3c2)c1-c1sc2ccccc2c1C#N [Example 4-242, 2-(4-(4-(aminomethyl)-1-oxo-1,2-dihydrophthalazin-6-yl)-1-methyl-1H-pyrazol-5-yl)benzo[b]thiophene-3-carbonitrile] | 4990 | > 1000
20 | 99 | 4 | 39 | Cn1ncc(-c2ccc3c(=O)[nH]nc(CN)c3c2)c1-c1cc(Cl)cc(OC2CC2)c1C#N [Example 4-188, 2-(4-(4-(aminomethyl)-1-oxo-1,2-dihydrophthalazin-6-yl)-1-methyl-1H-pyrazol-5-yl)-4-chloro-6-cyclopropoxybenzonitrile] | 904 | > 10000
21 | 41.7 | 15 | 36 | Cn1ncc(-c2cc(Cl)c3c(=O)[nH]nc(CN)c3c2)c1-c1ccc2ccccc2c1C#N [Example 10-1, 2-(4-(4-(aminomethyl)-8-chloro-1-oxo-1,2-dihydrophthalazin-6-yl)-1-methyl-1H-pyrazol-5-yl)-1-naphthonitrile] | 2300 | 1120
22 | 23 | 6 | 59 | COc1cc(-c2c(-c3ccc4c(=O)[nH]nc(CN)c4c3)cnn2C)c(C#N)c2ccccc12 [Example 4-205, 2-(4-(4-(aminomethyl)-1-oxo-1,2-dihydrophthalazin-6-yl)-1-methyl-1H-pyrazol-5-yl)-4-methoxy-1-naphthonitrile] | 683 | > 1000
